Test results from patent US12162890B2 (Novartis AG, priority 2015, dated 2024).

The molecules below were run against HEK293 cells with stable expression of the GRIN1 gene and tetracycline-inducible expression of the GRIN2B gene (NMDA receptor, NR2B) (Homo sapiens, UniProt Q13224) (assay: Fluo-8 Ca2+ flux assay: reversal of Ro 25-6981-mediated suppression of the Ca2+ response to co-agonist (glutamate/glycine)). Conditions: reversal of the Ro 25-6981 suppression of the Ca2+ response to co-agonist (glutamate/glycine).
Type: cell-based
Further: test concentration or dose not given here.

HEK293 cells with stable expression of the GRIN1 gene and tetracycline-inducible expression of the GRIN2B gene (NMDA receptor, NR2B), sequence (Q13224 27-1484, other chains not shown): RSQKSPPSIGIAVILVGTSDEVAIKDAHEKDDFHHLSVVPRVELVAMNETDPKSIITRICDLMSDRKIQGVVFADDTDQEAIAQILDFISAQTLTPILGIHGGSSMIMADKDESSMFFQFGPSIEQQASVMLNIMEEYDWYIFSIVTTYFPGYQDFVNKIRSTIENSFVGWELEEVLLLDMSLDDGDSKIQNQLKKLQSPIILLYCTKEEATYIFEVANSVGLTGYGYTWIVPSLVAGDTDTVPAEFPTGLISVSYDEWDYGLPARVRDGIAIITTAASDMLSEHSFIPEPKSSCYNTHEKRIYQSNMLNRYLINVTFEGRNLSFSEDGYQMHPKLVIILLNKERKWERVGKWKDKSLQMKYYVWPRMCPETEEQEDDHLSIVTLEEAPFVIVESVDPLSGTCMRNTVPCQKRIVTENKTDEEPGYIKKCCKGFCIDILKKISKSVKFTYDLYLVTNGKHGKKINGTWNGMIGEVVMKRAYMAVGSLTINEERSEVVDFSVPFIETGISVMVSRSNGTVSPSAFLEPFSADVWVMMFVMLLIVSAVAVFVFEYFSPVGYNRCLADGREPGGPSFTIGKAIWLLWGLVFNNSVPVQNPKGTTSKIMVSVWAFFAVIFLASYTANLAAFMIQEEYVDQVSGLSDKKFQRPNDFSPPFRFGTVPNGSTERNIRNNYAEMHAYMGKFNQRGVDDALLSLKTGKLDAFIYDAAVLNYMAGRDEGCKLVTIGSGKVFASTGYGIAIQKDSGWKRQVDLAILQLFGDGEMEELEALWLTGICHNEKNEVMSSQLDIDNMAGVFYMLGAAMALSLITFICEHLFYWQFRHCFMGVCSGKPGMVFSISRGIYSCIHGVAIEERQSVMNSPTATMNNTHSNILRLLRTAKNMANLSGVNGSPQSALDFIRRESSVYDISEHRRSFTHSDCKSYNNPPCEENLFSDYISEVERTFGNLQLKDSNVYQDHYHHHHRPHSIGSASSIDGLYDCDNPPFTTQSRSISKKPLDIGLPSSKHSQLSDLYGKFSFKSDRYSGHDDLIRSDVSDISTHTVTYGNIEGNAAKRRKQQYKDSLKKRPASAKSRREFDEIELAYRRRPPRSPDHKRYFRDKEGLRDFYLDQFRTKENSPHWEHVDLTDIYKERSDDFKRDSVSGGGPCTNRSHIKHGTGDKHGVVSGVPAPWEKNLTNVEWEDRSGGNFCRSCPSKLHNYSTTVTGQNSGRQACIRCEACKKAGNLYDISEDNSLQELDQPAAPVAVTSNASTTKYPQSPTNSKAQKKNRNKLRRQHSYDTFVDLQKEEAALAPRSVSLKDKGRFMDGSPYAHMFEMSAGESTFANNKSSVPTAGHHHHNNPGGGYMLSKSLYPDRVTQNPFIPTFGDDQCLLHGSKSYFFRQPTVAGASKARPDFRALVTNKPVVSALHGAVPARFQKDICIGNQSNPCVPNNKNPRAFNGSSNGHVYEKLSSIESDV

Going from `O=C(Cn1ccn2ncc(-c3ccc(Cl)c(Cl)c3)c2c1=O)N1CCC(F)C1` (centres unmarked) [Example 327, 3-(3,4-dichlorophenyl)-5-(2-(3-fluoropyrrolidin-1-yl)-2-oxoethyl)pyrazolo[1,5-a]pyrazin-4(5H)-one] to `O=C(Cn1ccn2ncc(-c3ccc(F)c(Cl)c3)c2c1=O)N1CC(F)(F)C1` [Example 328, 3-(3-chloro-4-fluorophenyl)-5-(2-(3,3-difluoroazetidin-1-yl)-2-oxoethyl)pyrazolo[1,5-a]pyrazin-4(5H)-one], the “Response Recovered (%)” value falls from 54% to 29%.

Going from `CC1(F)CN(C(=O)Cn2ccn3ncc(-c4ccc(F)c(Cl)c4)c3c2=O)C1` [Example 329, 3-(3-chloro-4-fluorophenyl)-5-(2-(3-fluoro-3-methylazetidin-1-yl)-2-oxoethyl)pyrazolo[1,5-a]pyrazin-4(5H)-one] to `O=C(Cn1ncc2scc(-c3ccc(F)c(Cl)c3)c2c1=O)N1CC(F)(F)C1` [Example 341, 3-(3-chloro-4-fluorophenyl)-5-(2-(3,3-difluoroazetidin-1-yl)-2-oxoethyl)thieno[2,3-d]pyridazin-4(5H)-one], the “Response Recovered (%)” value falls from 110% to 8%.

Going from `O=C(Cn1nnc2scc(-c3ccc(F)c(Cl)c3)c2c1=O)N1CCCC1` [Example 330, 5-(3-chloro-4-fluorophenyl)-3-(2-oxo-2-(pyrrolidin-1-yl)ethyl)thieno[2,3-d][1,2,3]triazin-4(3H)-one] to `O=C(Cn1ncc2scc(-c3ccc(F)c(Cl)c3)c2c1=O)N1CCCC1` [Example 337, 3-(3-chloro-4-fluorophenyl)-5-(2-oxo-2-(pyrrolidin-1-yl)ethyl)thieno[2,3-d]pyridazin-4(5H)-one], the “Response Recovered (%)” value rises from 6% to 7%.

Compared with `O=C(Cn1nnc2scc(-c3ccc(Cl)c(C(F)(F)F)c3)c2c1=O)N1CCCC1` [Example 331, 5-[4-chloro-3-(trifluoromethyl)phenyl]-3-[2-oxo-2-(pyrrolidin-1-yl)ethyl]-3H,4H-thieno[2,3-d][1,2,3]triazin-4-one], `O=C(Cn1ncc2scc(-c3ccc(Cl)c(C(F)(F)F)c3)c2c1=O)N1CCCC1` [Example 335, 3-(4-chloro-3-(trifluoromethyl)phenyl)-5-(2-oxo-2-(pyrrolidin-1-yl)ethyl)thieno[2,3-d]pyridazin-4(5H)-one] is higher in “Response Recovered (%)” value: 8% for the first, 23% for the second.

Going from `O=C(Cn1nnc2scc(-c3ccc(Cl)c(C(F)(F)F)c3)c2c1=O)N1CCC(F)C1` (centres unmarked) [Example 332, 5-(4-chloro-3-(trifluoromethyl)phenyl)-3-(2-(3-fluoropyrrolidin-1-yl)-2-oxoethyl)thieno[2,3-d][1,2,3]triazin-4(3H)-one] to `O=C(Cn1ncc2scc(-c3ccc(Cl)c(C(F)(F)F)c3)c2c1=O)N1CCC(F)C1` (centres unmarked) [Example 344, 3-(4-chloro-3-(trifluoromethyl)phenyl)-5-(2-(3-fluoropyrrolidin-1-yl)-2-oxoethyl)thieno[2,3-d]pyridazin-4(5H)-one], the “Response Recovered (%)” value falls from 20% to −1%.

Compared with `O=C(Cn1nnc2scc(-c3ccc(Cl)c(C(F)(F)F)c3)c2c1=O)N1CC(F)(F)C1` [Example 333, 5-(4-chloro-3-(trifluoromethyl)phenyl)-3-(2-(3,3-difluoroazetidin-1-yl)-2-oxoethyl)thieno[2,3-d][1,2,3]triazin-4(3H)-one], `O=C(Cn1ncc2scc(-c3ccc(Cl)c(C(F)(F)F)c3)c2c1=O)N1CC(F)(F)C1` [Example 339, 3-(4-chloro-3-(trifluoromethyl)phenyl)-5-(2-(3,3-difluoroazetidin-1-yl)-2-oxoethyl)thieno[2,3-d]pyridazin-4(5H)-one] is higher in “Response Recovered (%)” value: 13% for the first, 20% for the second.

`O=C(Cn1nnc2scc(-c3ccc(Cl)c(C(F)(F)F)c3)c2c1=O)N1CCCC1C(F)(F)F` (centres unmarked) [Example 334, 5-(4-chloro-3-(trifluoromethyl)phenyl)-3-(2-oxo-2-(2-(trifluoromethyl)pyrrolidin-1-yl)ethyl)thieno[2,3-d][1,2,3]triazin-4(3H)-one] and `O=C(Cn1cnc2csc(-c3ccc(C(F)(F)F)cc3)c2c1=O)N1CCCC1C(F)(F)F` (centres unmarked) [Example 357, 3-(2-oxo-2-(2-(trifluoromethyl)pyrrolidin-1-yl)ethyl)-5-(4-(trifluoromethyl)phenyl)thieno[3,4-d]pyrimidin-4(3H)-one] are the same in “Response Recovered (%)” value: 2% for the first, 2% for the second.

First: O=C(Cn1ncc2scc(-c3ccc(Cl)c(F)c3)c2c1=O)N1CCCC1 [Example 336, 3-(4-chloro-3-fluorophenyl)-5-(2-oxo-2-(pyrrolidin-1-yl)ethyl)thieno[2,3-d]pyridazin-4(5H)-one]
Second: O=C(Cn1ncc2scc(-c3ccc(Cl)c(Cl)c3)c2c1=O)N1CCCC1 [Example 338, 3-(3,4-dichlorophenyl)-5-(2-oxo-2-(pyrrolidin-1-yl)ethyl)thieno[2,3-d]pyridazin-4(5H)-one]
The “Response Recovered (%)” value of the first is lower: 3% for the first, 15% for the second.

Compared with `O=C(Cn1ncc2scc(-c3ccc(Cl)c(F)c3)c2c1=O)N1CC(F)(F)C1` [Example 340, 3-(4-chloro-3-fluorophenyl)-5-(2-(3,3-difluoroazetidin-1-yl)-2-oxoethyl)thieno[2,3-d]pyridazin-4(5H)-one], `O=C(Cn1ncc2scc(-c3ccc(Cl)c(F)c3)c2c1=O)N1CCC(F)C1` (centres unmarked) [Example 342, 3-(4-chloro-3-fluorophenyl)-5-(2-(3-fluoropyrrolidin-1-yl)-2-oxoethyl)thieno[2,3-d]pyridazin-4(5H)-one] is higher in “Response Recovered (%)” value: 3% for the first, 4% for the second.

Going from `O=C(Cn1ncc2scc(-c3ccc(F)c(Cl)c3)c2c1=O)N1CCC(F)C1` (centres unmarked) [Example 343, 3-(3-chloro-4-fluorophenyl)-5-(2-(3-fluoropyrrolidin-1-yl)-2-oxoethyl)theino[2,3-d]pyridazin-4(5H)-one] to `O=C(Cn1cnc2csc(-c3ccc(F)c(Cl)c3)c2c1=O)N1CCCC1` [Example 359, 5-(3-chloro-4-fluorophenyl)-3-(2-oxo-2-(pyrrolidin-1-yl)ethyl)thieno[3,4-d]pyrimidin-4(3H)-one], the “Response Recovered (%)” value rises from 15% to 35%.

Going from `O=C(Cn1cnc2csc(-c3ccc(Cl)cc3)c2c1=O)N1CCCC1` [Example 345, 5-(4-chlorophenyl)-3-(2-oxo-2-(pyrrolidin-1-yl)ethyl)thieno[3,4-d]pyrimidin-4(3H)-one] to `O=C(Cn1cnc2csc(-c3ccc(Cl)cc3)c2c1=O)N1CCCCC1` [Example 350, 5-(4-chlorophenyl)-3-(2-oxo-2-(piperidin-1-yl)ethyl)thieno[3,4-d]pyrimidin-4(3H)-one], the “Response Recovered (%)” value falls from 18% to 0%.

Compared with `O=C(Cn1cnc2csc(-c3ccc(Cl)cc3)c2c1=O)NC1CC1` [Example 346, 2-(5-(4-chlorophenyl)-4-oxothieno[3,4-d]pyrimidin-3(4H)-yl)-N-cyclopropylacetamide], `O=C(Cn1cnc2csc(-c3ccc(Cl)cc3)c2c1=O)NC1CCC1` [Example 347, 2-(5-(4-chlorophenyl)-4-oxothieno[3,4-d]pyrimidin-3-(4H)-yl)-N-cyclobutylacetamide] is higher in “Response Recovered (%)” value: 0% for the first, 2% for the second.

Going from `O=C(Cn1cnc2csc(-c3ccc(Cl)cc3)c2c1=O)N1CC(F)(F)C1` [Example 348, 5-(4-chlorophenyl)-3-(2-(3,3-difluoroazetidin-1-yl)-2-oxoethyl)thieno[3,4-d]pyrimidin-4(3H)-one] to `O=C(Cn1cnc2csc(-c3ccc(F)c(Cl)c3)c2c1=O)N1CC(F)(F)C1` [Example 360, 5-(3-chloro-4-fluorophenyl)-3-(2-(3,3-difluoroazetidin-1-yl)-2-oxoethyl)thieno[3,4-d]pyrimidin-4(3H)-one], the “Response Recovered (%)” value rises from 26% to 39%.

First: O=C(Cn1cnc2csc(-c3ccc(Cl)cc3)c2c1=O)N1CCC1 [Example 349, 3-(2-(azetidin-1-yl)-2-oxoethyl)-5-(4-chlorophenyl)thieno[3,4-d]pyrimidin-4(3H)-one]
Second: O=C(Cn1cnc2csc(-c3ccc(Cl)cc3)c2c1=O)N1CCOCC1 [Example 354, 5-(4-chlorophenyl)-3-(2-morpholino-2-oxoethyl)thieno[3,4-d]pyrimidin-4(3H)-one]
The “Response Recovered (%)” value of the first is higher: 3% for the first, 1% for the second.

First: COC1CN(C(=O)Cn2cnc3csc(-c4ccc(Cl)cc4)c3c2=O)C1 [Example 351, 5-(4-chlorophenyl)-3-(2-(3-methoxyazetidin-1-yl)-2-oxoethyl)thieno[3,4-d]pyrimidin-4(3H)-one]
Second: O=C(Cn1cnc2csc(-c3ccc(Cl)cc3)c2c1=O)N1CCC(O)C1 (centres unmarked) [Example 352, 5-(4-chlorophenyl)-3-(2-(3-hydroxypyrrolidin-1-yl)-2-oxoethyl)thieno[3,4-d]pyrimidin-4(3H)-one]
The “Response Recovered (%)” value of the first is lower: 1% for the first, 7% for the second.

First: O=C(Cn1cnc2csc(-c3ccc(Cl)cc3)c2c1=O)N1CCC(F)(F)CC1 [Example 353, 5-(4-chlorophenyl)-3-(2-(4,4-difluoropiperidin-1-yl)-2-oxoethyl)thieno[3,4-d]pyrimidin-4(3H)one]
Second: O=C(Cn1cnc2csc(-c3ccc(Cl)cc3)c2c1=O)N1CCCC1C(F)(F)F (centres unmarked) [Example 355, 5-(4-chlorophenyl)-3-(2-oxo-2-(2-(trifluoromethyl)pyrrolidin-1-yl)ethyl)thieno[3,4-d]pyrimidin-4(3H)-one]
The “Response Recovered (%)” value of the first is lower: 1% for the first, 10% for the second.

Going from `O=C(Cn1cnc2csc(-c3ccc(C(F)(F)F)cc3)c2c1=O)N1CCCC1` [Example 356, 3-(2-oxo-2-(pyrrolidin-1-yl)ethyl)-5-(4-(trifluoromethyl)phenyl)thieno[3,4-d]pyrimidin-4(3H)-one] to `O=C(Cn1cnc2csc(-c3ccc(C(F)(F)F)cc3)c2c1=O)N1CC(F)(F)C1` [Example 358, 3-(2-(3,3-difluoroazetidin-1-yl)-2-oxoethyl)-5-(4-(trifluoromethyl)phenyl)thieno[3,4-d]pyrimidin-4(3H)-one], the “Response Recovered (%)” value rises from 11% to 12%.

In the case of `O=C(Cn1cnc2csc(-c3ccc(Cl)c(C(F)(F)F)c3)c2c1=O)N1CC(F)(F)C1` [Example 362, 5-(4-chloro-3-(trifluoromethyl)phenyl)-3-(2-(3,3-difluoroazetidin-1-yl)-2-oxoethyl)thieno[3,4-d]pyrimidin-4(3H)-one], the “Response Recovered (%)” value is reported as 39%.
